Data as given in publication PMC9653173, “Trotabresib (CC-90010) in combination with adjuvant temozolomide or concomitant temozolomide plus radiotherapy in patients with newly diagnosed glioblastoma” (Neuro-Oncology Advances, 2022).

Experiments:
CCR1 mRNA = experiment: Blood CCR1 mRNA pharmacodynamics; format: in vivo, human
Text: (§1) Plasma samples were collected during the first treatment cycle for investigation of trotabresib pharmacokinetics and pharmacodynamics. Plasma pharmacokinetic parameters assessed included peak plasma concentration (Cmax), time to peak plasma concentration (tmax), area under the plasma concentration–time curve (AUC), and terminal half-life (t½). Pharmacodynamic markers assessed included blood levels of CCR1 and HEXIM1 mRNA, which are established markers of BET inhibitor target engagement.[17],[22],[37],[38]

HEXIM1 mRNA = experiment: Blood HEXIM1 mRNA pharmacodynamics; format: in vivo, human
Text: as §1

MGMT = experiment: In vivo downregulation of MGMT; settings: preclinical; Supplementary Figure S2
Text: Supplementary Figure 2. In vivo downregulation of MGMT (A) mRNA by trotabresib as a single agent and (B) protein by trotabresib in combination with TMZ.

[1] = set-up: method as in PMID 36455228; settings: recurrent high-grade glioma, trotabresib 30 mg/day on days 1–4 before surgery; cited from earlier work

Compound: Cn1cc(-c2cc(S(C)(=O)=O)ccc2OCC2CC2)c2ccccc2c1=O [Trotabresib]
- Blood CCR1 mRNA expression, lower than at baseline (CCR1 mRNA; RP2D 30 mg, day 4, 2–4 h post-dose, adjuvant and concomitant settings): ≥ 50%
- Time to return of CCR1 mRNA expression to baseline levels (CCR1 mRNA; RP2D 30 mg, post-dose in cycle 1): ≤ 168 h
- Blood CCR1 mRNA modulation (CCR1 mRNA; trotabresib 15 mg, adjuvant or concomitant cohorts): no decrease in CCR1 expression
- Duration of HEXIM1 mRNA elevation (HEXIM1 mRNA; RP2D 30 mg, cycle 1): remained above baseline until 168 h post-dose
- Increase in blood HEXIM1 mRNA expression (HEXIM1 mRNA; RP2D 30 mg, days 3 and 4, adjuvant and concomitant cohorts): 2.5- to 4.0 fold
- HEXIM1 modulation vs dose (HEXIM1 mRNA; both cohorts): increased with trotabresib dose
- MGMT expression (MGMT): downregulates MGMT expression in a dose-dependent manner
- Brain tumor tissue:plasma ratio [1]: 0.84
